SMILES strings stand for the structures. Converted amounts (≈) assume the structure as drawn.

For orientation: logP means a log measure of how a compound divides between an organic and an aqueous phase. Compound `CC[C@H](C)C(=O)O[C@H]1C[C@H](O)C=C2C=C[C@H](C)[C@H](CC[C@@H](O)C[C@@H](O)CC(=O)[O-])[C@H]21.[Na+]` showed a logP of -0.23. Same read-out and setting: to `O=[N+]([O-])c1cc(C2CCCCC2)c(O)c([N+](=O)[O-])c1` belongs 4.12. Still for that read-out and setting: to `O=C(OCCOCCOCCO)c1ccccc1` belongs 1.09. The same measure, in the same setting: to `Brc1cc(Br)c(Oc2cc(Br)c(Br)c(Br)c2)cc1Br` belongs 7.4. Consider `CC(C)(C)OCCO`, for which the logP was determined as 0.39.

As for `OCC1CC(F)C(n2cnc3c(Cl)ncnc32)O1` (stereo unspecified), the logP turned out to be 0.32. The same measure, in the same setting: to `CC(=O)N[C@@H](C)C(=O)N[C@@H](C)C(N)=O` belongs -2; to `COc1c(Cl)c(Cl)c(Cl)c(Cl)c1Cl`, 5.45. `CCCCOC(=O)c1ccccc1C(=O)OCCCC` showed a logP of 4.5. The same measure, in the same setting: to `CCCOc1ccc([N+](=O)[O-])cc1NC(C)=O` belongs 1.6; to `CCCCCCCC(=O)[O-].[Na+]`, -1.38; to `CSc1nc(N=[N+]=[N-])nc(NC(C)C)n1`, 3. Same read-out and setting: to `CCCCC(=O)OCC1OC(n2cnc3c(OC)ncnc32)C(OC(=O)CCCC)C1O` (stereo unspecified) belongs 3.58. Same read-out and setting: to `CCn1c2ccccc2c2ccccc21` belongs 4.49; to `CN(C)C(=S)N(C)C`, 0.49. `CN(C)CCCN1c2ccccc2Sc2ccccc21.Cl` displayed a logP of 2.94. In turn, `ClC(Cl)(Cl)c1nc(NCc2ccccc2)nc(C(Cl)(Cl)Cl)n1` displayed a logP of 4.93. The same measure, in the same setting: to `O=[N+]([O-])c1ccc2c(c1)Cc1ccccc1-2` belongs 3.37; to `C/C=C(/C)C(=O)O[C@H]1CCN2CC=C(COC(=O)[C@](O)([C@H](C)OC)C(C)(C)O)[C@H]12`, 1.28; to `Clc1ccc(Cl)c(NC2=NCCN2)c1Cl`, 2.46. `COc1ccc(C=NNC(=N)N)cc1` came in with a logP of 0.29. `CCCN(CCOc1c(Cl)cc(Cl)cc1Cl)C(=O)n1ccnc1`: the logP is 4.1.

Take `CCCCCCCCCC1(CC)C(=O)NC(=O)NC1=O`: the logP was determined as 4. On the same count and under the same terms, to `Clc1ccc(Cl)c(-c2ccccc2Cl)c1` belongs 5.48; to `CN(C)CCc1ccccn1`, 1.12; to `CCCCCCN1CC(C(=O)O)CC1=O` (stereo unspecified), 1.6. As for `COc1ccc(N)c(S(=O)(=O)O)c1`, the logP is -3.49. Still for that read-out and setting: to `CCCN(CC1CC1)c1c([N+](=O)[O-])cc(C(F)(F)F)cc1[N+](=O)[O-]` belongs 5.58. Regarding `CN(C(=O)C(Cl)Cl)c1ccc(OC(=O)c2ccco2)cc1`, the logP is 2.24. The same measure, in the same setting: to `O=c1[nH][nH]c(=O)c2ccccc12` belongs 0.11; to `CC(C(=O)Nc1ccc([N+](=O)[O-])c(C(F)(F)F)c1)C(F)(F)F` (stereo unspecified), 3.71.

`CC(C)/N=c1/cc2n(-c3ccc(Cl)cc3)c3ccccc3nc-2cc1Nc1ccc(Cl)cc1` had a log partition coefficient (logP) of 7.66. Still for that read-out and setting: to `CS(=O)(=O)c1cccc2ccccc12` belongs 1.74; to `C[Si]1(C)O[Si](C)(C)O[Si](C)(C)O[Si](C)(C)O[Si](C)(C)O[Si](C)(C)O1`, 9.06; to `Brc1ccc(-c2ccccc2)cc1`, 4.96.

In general, solubility refers to the dissolved amount per volume that the medium holds. Low values mean a poorly soluble substance, high ones a readily soluble substance. The compound `COC(=O)CCC(=O)OC` yielded a solubility of 171 mM (≈ 25 mg/mL). In turn, `Cc1cccc(C)c1C#[N+][O-]` returned a logP of 2.74. Still for that read-out and setting: to `[N-]=[N+]=CC(=O)OC[C@H](N)C(=O)O` belongs -2; to `FC(F)(F)c1cccc(Cn2cncn2)c1`, 1.74; to `O=C(O)C1C2CCC(O2)C1C(=O)O` (stereo unspecified), 1.91.

For `Cc1cccc(C)c1C`, the solubility was found to be 0.626 mM (≈ 0.0752 mg/mL).

In the case of `CCN(CC)CCCN=c1cc2n(-c3ccc(Cl)cc3)c3ccccc3nc-2cc1Nc1ccc(Cl)cc1`, the logP came out at 8.05. In turn, `CCCCOCCNc1ccc(Cl)cc1C(N)=O` returned a logP of 2.99. On the same count and under the same terms, to `O=[N+]([O-])c1ccc2c(c1)CCN2` belongs 2.07; to `NS(=O)(=O)c1cc2cc(CNCCO)sc2s1`, -0.72. Same read-out and setting: to `COc1cc(C(=O)NCc2ccc(OCCN(C)C)cc2)cc(OC)c1OC` belongs 2.29. On the same count and under the same terms, to `CCO[C@H]1O[C@@H]2OC3(C)CC[C@H]4[C@H](C)CC[C@@H]([C@H]1C)[C@@]24OO3` belongs 3.89; to `C1=C(c2ccccc2)CCNC1`, 1.99; to `CCn1ccc(=O)c(O)c1`, -0.4.

The compound `ClCc1ccc(Cl)cc1` yielded a logP of 3.18. `Cc1cc(Cl)c(Cl)cc1Cc1c(Cl)cccc1Cl` registered a logP of 7.15. On the same count and under the same terms, to `CN(C(=O)C(Cl)Cl)c1ccc(OC(=O)c2ccccc2)cc1` belongs 2.56; to `O=C(O)Cc1ccccc1I`, 2.33.

`COc1ccc(Cl)c(Cl)c1Cl` gave a logP of 3.74. Turning to `CCCCCCN1CCCC1=O`, the logP worked out at 2.6.

Compound `Cc1ccc(Br)c(C)c1NC(=O)CN(CC(=O)O)CC(=O)O` registered a logP of -0.28.

For `O=C1OC(=Nc2ccc(Cl)cc2)C2=C1CCCC2`, the logP came to 3.84. On the same count and under the same terms, to `CC(C)(C)C1CCCCC1` belongs 5.04. Same read-out and setting: to `CCCCCCCCOC(=O)c1ccc(N)cc1` belongs 5.02. Same read-out and setting: to `CCCCCCCCC` belongs 5.65; to `CCCN1CCOC2c3cccc(O)c3CCC21` (stereo unspecified), 2.22. `N#CCCN(N)c1nc2cc(C(F)(F)F)ccc2o1` showed a lipophilicity (logP) of 1.72. With `COC(=O)c1ccc(Cl)cc1`, the logP is 2.87. In turn, `Cc1nc(N2CCOCC2)c(C#N)cc1-c1ccccc1` returned a logP of 3.65.

`CN(C)c1cnn(-c2ccccc2)c(=O)c1Cl` gave a logP of 1.55. Still for that read-out and setting: to `CN1CC(C(=O)O)CC1=O` (stereo unspecified) belongs -1.5.

(Values after the OPERA property sets (Mansouri et al. 2018).)
